Laboratory results from patent US10543212B2, “Substituted amines for treating cardiac diseases” (Cardurion Pharmaceuticals, LLC, priority 2017, dated 2020).
pIC50: −log10 of the molar value.

Biological target: T1, Full-length, GST-tagged, human CaMKIIδ (Homo sapiens, UniProt Q13557)
T1 construct: Full-Length, Glutathione-S-Transferase(GST)-Tagged, Human CaMKIIδ was purchased from Carna Biosciences; purchased Carna Biosciences 02-111
Test: CaMKIIδ binding assay (TR-FRET with BODIPY-labeled probe ligand)
Details: CaMKIIδ binding assay, results of Table 2
Outline: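 TR-FRET probe-displacement binding: 0.5 nM GST-CaMKIIδ with 10 μg/mL calmodulin, 1 mM CaCl2, 0.21 nM Tb-anti-GST Ab and 300 nM BODIPY probe in HEPES pH 7.6 buffer. Eight-point 4-fold dilutions, 1 hr at room temperature. IC50 from logistic fit; 100% inhibition defined by 3 μM parent compound.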

T1 sequence (Q13557 1-478 isoform Q13557-12): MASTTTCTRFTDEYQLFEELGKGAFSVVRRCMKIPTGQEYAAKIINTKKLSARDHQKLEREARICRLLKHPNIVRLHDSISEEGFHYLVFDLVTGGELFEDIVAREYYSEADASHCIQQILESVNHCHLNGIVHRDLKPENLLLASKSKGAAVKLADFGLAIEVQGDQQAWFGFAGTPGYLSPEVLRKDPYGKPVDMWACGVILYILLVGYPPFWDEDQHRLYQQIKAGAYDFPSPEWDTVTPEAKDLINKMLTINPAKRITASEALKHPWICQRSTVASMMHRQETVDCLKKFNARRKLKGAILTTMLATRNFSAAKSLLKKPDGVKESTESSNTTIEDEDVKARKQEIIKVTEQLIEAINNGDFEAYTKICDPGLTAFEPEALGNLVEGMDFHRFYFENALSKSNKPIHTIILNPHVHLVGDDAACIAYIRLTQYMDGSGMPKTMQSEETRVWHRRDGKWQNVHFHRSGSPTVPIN

Structure (SMILES) | pIC50
COc1cc2cc[nH]c2cc1Nc1ncc(-c2ccc(Cl)c(O[C@@H](C)Cn3cnnn3)c2)cn1 [Example 496, (S)-N-(5-(3-((1-(1H-tetrazol-1-yl)propan-2-yl)oxy)-4-chlorophenyl)pyrimidin-2-yl)-5-methoxy-1H-indol-6-amine] | 7.00 to 8.00
C[C@@H](Cn1cnnn1)Oc1cc(-c2cnc(Nc3cn(C4CCN(CC5COC5)CC4)nc3C(F)(F)F)nc2)ccc1Cl [Example 489, (S)-5-(3-((1-(1H-tetrazol-1-yl)propan-2-yl)oxy)-4-chlorophenyl)-N-(1-(1-(oxetan-3-ylmethyl)piperidin-4-yl)-3-(trifluoromethyl)-1H-pyrazol-4-yl)pyrimidin-2-amine] | > 8.00
COc1cc2c(cc1Nc1ncc(-c3ccc(Cl)c(O[C@@H](C)Cn4cnnn4)c3)cn1)C(=O)N(C1CCC1)C2 [Example 441, (S)-6-((5-(3-((1-(1H-tetrazol-1-yl)propan-2-yl)oxy)-4-chlorophenyl)pyrimidin-2-yl)amino)-2-cyclobutyl-5-methoxyisoindolin-1-one] | 7.00 to 8.00
COc1cnc(N2CCC(N3CCOCC3)CC2)cc1Nc1ncc(-c2ccc(Cl)c(O[C@@H](C)Cn3cnnn3)c2)cn1 [Example 456, (S)-5-(3-((1-(1H-tetrazol-1-yl)propan-2-yl)oxy)-4-chlorophenyl)-N-(5-methoxy-2-(4-morpholinopiperidin-1-yl)pyridin-4-yl)pyrimidin-2-amine] | > 8.00
C[C@@H](Cn1cnnn1)Oc1cc(-c2cnc(Nc3cn(C4CCN(C5CCN(C6CC6)CC5)CC4)nc3C(F)(F)F)nc2)ccc1Cl [Example 558, (S)-5-(3-((1-(1H-tetrazol-1-yl)propan-2-yl)oxy)-4-chlorophenyl)-N-(1-(1′-cyclopropyl-[1,4′-bipiperidin]-4-yl)-3-(trifluoromethyl)-1H-pyrazol-4-yl)pyrimidin-2-amine] | > 8.00
COc1cnc(C2CCC(F)(F)CC2)cc1Nc1ncc(-c2ccc(Cl)c(O[C@@H](C)Cn3cnnn3)c2)cn1 [Example 508, (S)-5-(3-((1-(1H-tetrazol-1-yl)propan-2-yl)oxy)-4-chlorophenyl)-N-(2-(4,4-difluorocyclohexyl)-5-methoxypyridin-4-yl)pyrimidin-2-amine] | ≤ 7.00
C[C@@H](Cn1cnnn1)Oc1cc(-c2cnc(Nc3cn(C4CCN(Cc5cccn5C)CC4)nc3C(F)(F)F)nc2)ccc1Cl [Example 566, (S)-5-(3-((1-(1H-tetrazol-1-yl)propan-2-yl)oxy)-4-chlorophenyl)-N-(1-(1-((1-methyl-1H-pyrrol-2-yl)methyl)piperidin-4-yl)-3-(trifluoromethyl)-1H-pyrazol-4-yl)pyrimidin-2-amine] | > 8.00

Same assay, conditions: CaMKIIδ binding assay; activity class per Table 2

Structure (SMILES) | pIC50
C[C@@H](Cn1cnnn1)Oc1cc(-c2cnc(Nc3cn(C4CC5(C4)CN(C4CCOC4)C5)nc3C(F)(F)F)nc2)ccc1Cl (stereo partly drawn) [Example 930, 5-(3-(((S)-1-(1H-tetrazol-1-yl)propan-2-yl)oxy)-4-chlorophenyl)-N-(1-(2-(tetrahydrofuran-3-yl)-2-azaspiro[3.3]heptan-6-yl)-3-(trifluoromethyl)-1H-pyrazol-4-yl)pyrimidin-2-amine] | > 8.00
C[C@@H](Cn1cnnn1)Oc1cc(-c2cnc(Nc3cn(CC4(O)CCC5(CC4)OCCO5)nc3OCC(F)(F)F)nc2)ccc1Cl [Example 899, (S)-8-((4-((5-(3-((1-(1H-tetrazol-1-yl)propan-2-yl)oxy)-4-chlorophenyl)pyrimidin-2-yl)amino)-3-(2,2,2-trifluoroethoxy)-1H-pyrazol-1-yl)methyl)-1,4-dioxaspiro[4.5]decan-8-ol] | > 8.00
C[C@@H](Cn1cnnn1)Oc1cc(-c2cnc(Nc3cn(C4CC5(C4)CN(C4(C)CCOCC4)C5)nc3OCC(F)(F)F)nc2)ccc1Cl [Example 937, (S)-5-(3-((1-(1H-tetrazol-1-yl)propan-2-yl)oxy)-4-chlorophenyl)-N-(1-(2-(4-methyltetrahydro-2H-pyran-4-yl)-2-azaspiro[3.3]heptan-6-yl)-3-(2,2,2-trifluoroethoxy)-1H-pyrazol-4-yl)pyrimidin-2-amine] | > 8.00
C[C@@H](Cn1cnnn1)Oc1cc(-c2cnc(Nc3cn(CC4(O)CCN(C(N)=O)CC4)nc3C(F)(F)F)nc2)ccc1Cl [Example 888, (S)-4-((4-((5-(3-((1-(1H-tetrazol-1-yl)propan-2-yl)oxy)-4-chlorophenyl)pyrimidin-2-yl)amino)-3-(trifluoromethyl)-1H-pyrazol-1-yl)methyl)-4-hydroxypiperidine-1-carboxamide] | > 8.00
CC(Cn1cnnn1)Oc1cc(-c2cnc(Nc3cn(CC4(O)CCC(C)(O)CC4)nc3OCC(F)(F)F)nc2)ccc1Cl [Example 924, cis-1-((4-((5-(3-(((S)-1-(1H-tetrazol-1-yl)propan-2-yl)oxy)-4-chlorophenyl)pyrimidin-2-yl)amino)-3-(2,2,2-trifluoroethoxy)-1H-pyrazol-1-yl)methyl)-4-methylcyclohexane-1,4-diol] | > 8.00

Same assay, conditions: Table 2; CaMKIIδ binding assay, activity given as class A/B/C

Structure (SMILES) | pIC50
C[C@@H](Cn1cnnn1)Oc1cc(-c2cnc(Nc3cn(CC4(O)CCC4)nc3C(F)(F)F)nc2)ccc1Cl [Example 855, (S)-1-((4-((5-(3-((1-(1H-tetrazol-1-yl)propan-2-yl)oxy)-4-chlorophenyl)pyrimidin-2-yl)amino)-3-(trifluoromethyl)-1H-pyrazol-1-yl)methyl)cyclobutan-1-ol] | > 8.00
C[C@@H](Cn1cnnn1)Oc1cc(-c2cnc(Nc3cn(C4CCC(=O)CC4)nc3OCC(F)F)nc2)ccc1Cl [Example 800, (S)-4-(4-((5-(3-((1-(1H-tetrazol-1-yl)propan-2-yl)oxy)-4-chlorophenyl)pyrimidin-2-yl)amino)-3-(2,2-difluoroethoxy)-1H-pyrazol-1-yl)cyclohexan-1-one] | > 8.00
CCn1cc(Nc2ncc(-c3ccc(C#N)c(O[C@@H](C)Cn4cnnn4)c3)cn2)c(OCC(F)(F)F)n1 [Example 764, (S)-2-((1-(1H-tetrazol-1-yl)propan-2-yl)oxy)-4-(2-((1-ethyl-3-(2,2,2-trifluoroethoxy)-1H-pyrazol-4-yl)amino)pyrimidin-5-yl)benzonitrile] | > 8.00

Same assay, conditions: Table 2; activity class for CaMKIIδ

Structure (SMILES) | pIC50
COc1cc(N2CCN(C3CCOC3)CC2)ncc1Nc1ncc(-c2ccc(Cl)c(O[C@@H](C)Cn3cnnn3)c2)cn1 (stereo partly drawn) [Example 651, 5-(3-(((S)-1-(1H-tetrazol-1-yl)propan-2-yl)oxy)-4-chlorophenyl)-N-(4-methoxy-6-(4-(tetrahydrofuran-3-yl)piperazin-1-yl)pyridin-3-yl)pyrimidin-2-amine] | 7.00 to 8.00
COc1nc(N2CCCN(C(=O)OC(C)(C)C)CC2)ccc1Nc1ncc(-c2ccc(Cl)c(O[C@@H](C)Cn3cnnn3)c2)cn1 [Example 665, tert-butyl (S)-4-(5-((5-(3-((1-(1H-tetrazol-1-yl)propan-2-yl)oxy)-4-chlorophenyl)pyrimidin-2-yl)amino)-6-methoxypyridin-2-yl)-1,4-diazepane-1-carboxylate] | ≤ 7.00
COc1ccc(N2CC(N3CCOCC3)C2)cc1Nc1ncc(-c2ccc(Cl)c(O[C@@H](C)Cn3cnnn3)c2)cn1 [Example 595, (S)-5-(3-((1-(1H-tetrazol-1-yl)propan-2-yl)oxy)-4-chlorophenyl)-N-(2-methoxy-5-(3-morpholinoazetidin-1-yl)phenyl)pyrimidin-2-amine] | 7.00 to 8.00
